From PubChem BioAssay AID330 (DTP/NCI, 2004)
Values joined by “and” are separate entries in the source; they are usually repeats but may differ in a detail not shown here. Equal entries are not always repeated. Toxic doses and inconclusive results are not listed.

Test system: P388 leukemia ip, CD2F1 mice, survival T/C
Assay: NCI In Vivo Anticancer Drug Screen. Data for tumor model P388 Leukemia (intraperitoneal) in CD2F1 (CDF1) mice
Settings: endpoint: median survival time, higher = longer survival
How it was run: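 Mice carrying the transplanted tumor received test compound or vehicle. Survival was recorded in each group, and the value is the treated-group measurement divided by that of the vehicle-treated control group.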

[1] = dose: 60.0 mg/kg/injection, schedule: Q01DX005 (ip), vehicle: saline with Tween-80
[2] = dose: 120.0 mg/kg/injection, schedule: Q01DX005 (ip), vehicle: saline with Tween-80
[3] = dose: 240.0 mg/kg/injection, schedule: Q01DX005 (ip), vehicle: saline with Tween-80
[4] = dose: 50.0 mg/kg/injection, schedule: Q01DX005 (ip), vehicle: Klucel (hydroxypropylcellulose) (HPC)
[5] = dose: 100.0 mg/kg/injection, schedule: Q01DX005 (ip), vehicle: Klucel (hydroxypropylcellulose) (HPC)
[6] = dose: 200.0 mg/kg/injection, schedule: Q01DX005 (ip), vehicle: Klucel (hydroxypropylcellulose) (HPC)
[7] = dose: 6.25 mg/kg/injection, schedule: Q01DX009 (ip), vehicle: Klucel (hydroxypropylcellulose) (HPC)
[8] = dose: 12.5 mg/kg/injection, schedule: Q01DX009 (ip), vehicle: Klucel (hydroxypropylcellulose) (HPC)
[9] = dose: 25.0 mg/kg/injection, schedule: Q01DX009 (ip), vehicle: Klucel (hydroxypropylcellulose) (HPC)
[10] = dose: 50.0 mg/kg/injection, schedule: Q01DX009 (ip), vehicle: Klucel (hydroxypropylcellulose) (HPC)
[11] = dose: 100.0 mg/kg/injection, schedule: Q01DX001 (ip), vehicle: saline with Tween-80
[12] = dose: 200.0 mg/kg/injection, schedule: Q01DX001 (ip), vehicle: saline with Tween-80
[13] = dose: 400.0 mg/kg/injection, schedule: Q01DX001 (ip), vehicle: saline with Tween-80
[14] = dose: 60.0 mg/kg/injection, schedule: Q01DX005 (ip), vehicle: Klucel (hydroxypropylcellulose) (HPC)
[15] = dose: 120.0 mg/kg/injection, schedule: Q01DX005 (ip), vehicle: Klucel (hydroxypropylcellulose) (HPC)
[16] = dose: 25.0 mg/kg/injection, schedule: Q01DX009 (ip), vehicle: saline with Tween-80
[17] = dose: 50.0 mg/kg/injection, schedule: Q01DX009 (ip), vehicle: saline with Tween-80
[18] = dose: 100.0 mg/kg/injection, schedule: Q01DX009 (ip), vehicle: saline with Tween-80
[19] = dose: 25.0 mg/kg/injection, schedule: Q04DX003 (ip), vehicle: saline with Tween-80
[20] = dose: 50.0 mg/kg/injection, schedule: Q04DX003 (ip), vehicle: saline with Tween-80
[21] = dose: 100.0 mg/kg/injection, schedule: Q04DX003 (ip), vehicle: saline with Tween-80

C[Si](C)(C)c1ccccn1 was tested, and the T/C [1] was 108 % of control, the T/C [2] was 103 % of control and the T/C [3] was 113 % of control.

For O=C(O)CCCC(O)(O)C(=O)O, the T/C [4] was 108 % of control, the T/C [5] was 94 % of control and the T/C [6] was 96 % of control.

For COc1ccc(OC)c(C2SCC(=O)N2c2nncs2)c1 (stereo not drawn), the T/C [1] was 104 % of control, the T/C [2] was 97 % of control and the T/C [3] was 97 % of control.

In the case of CCOC(=O)/C(C=NC1CC(N=C/C(C(=O)OCC)=C(\C)O)CC(N=C/C(C(=O)OCC)=C(\C)O)C1)=C(/C)O (stereo not drawn), the T/C [7] was 106 % of control, the T/C [8] was 103 % of control and the T/C [9] was 97 % of control. The T/C [10] was 93 % of control.

CCOC(=O)C1CC(=O)SC1=O (stereo not drawn) was tested, and the T/C (dose: 25.0 mg/kg/injection, schedule: Q04DX002 (ip), vehicle: saline with Tween-80) was 101 % of control, the T/C (dose: 50.0 mg/kg/injection, schedule: Q04DX002 (ip), vehicle: saline with Tween-80) was 100 % of control and the T/C (dose: 100.0 mg/kg/injection, schedule: Q04DX002 (ip), vehicle: saline with Tween-80) was 99 % of control.

With COC(=O)C1C2C=CC(C1C(=O)OC)N(/C=C/c1ccccc1)C2=O (stereo not drawn) the T/C (dose: 100.0 mg/kg/injection, schedule: Q04DX003 (ip), vehicle: Klucel (hydroxypropylcellulose) (HPC)) was 96 % of control, the T/C (dose: 200.0 mg/kg/injection, schedule: Q04DX003 (ip), vehicle: Klucel (hydroxypropylcellulose) (HPC)) was 95 % of control and the T/C (dose: 400.0 mg/kg/injection, schedule: Q04DX003 (ip), vehicle: Klucel (hydroxypropylcellulose) (HPC)) was 97 % of control.

In the case of COc1ccc(NC(=O)c2ccc3c(c2)OCO3)cc1, the T/C (dose: 12.5 mg/kg/injection, schedule: Q01DX009 (ip), vehicle: other) was 108 % of control, the T/C (dose: 25.0 mg/kg/injection, schedule: Q01DX009 (ip), vehicle: other) was 103 % of control and the T/C (dose: 50.0 mg/kg/injection, schedule: Q01DX009 (ip), vehicle: other) was 94 % of control. The T/C (dose: 100.0 mg/kg/injection, schedule: Q01DX009 (ip), vehicle: other) was 95 % of control and the T/C (dose: 200.0 mg/kg/injection, schedule: Q01DX009 (ip), vehicle: other) was 91 % of control.

In the case of CC(C)P(C(C)C)C(C)C, the T/C [11] was 104 % of control, the T/C [12] was 104 % of control and the T/C [13] was 95 % of control.

For CCOC(=O)c1c[nH]c2ccc3c(nc(C)n3C)c2c1=O, the T/C (dose: 30.0 mg/kg/injection, schedule: Q01DX005 (ip), vehicle: Klucel (hydroxypropylcellulose) (HPC)) was 102 % of control and 91 % of control, the T/C [14] was 103 % of control and 110 % of control and 91 % of control and the T/C [15] was 112 % of control (2×) and 113 % of control. The T/C (dose: 240.0 mg/kg/injection, schedule: Q01DX005 (ip), vehicle: Klucel (hydroxypropylcellulose) (HPC)) was 115 % of control and 122 % of control and 123 % of control.

CCCCCOCC(=O)O was tested, and the T/C [16] was 104 % of control, the T/C [17] was 94 % of control and the T/C [18] was 96 % of control.

In the case of C/C(=C\c1ccccc1)C(=O)C(CN(C)C)CN(C)C, the T/C (dose: 1.87 mg/kg/injection, schedule: Q01DX005 (ip), vehicle: saline) was 111 % of control, the T/C (dose: 3.75 mg/kg/injection, schedule: Q01DX005 (ip), vehicle: saline) was 113 % of control and the T/C (dose: 7.5 mg/kg/injection, schedule: Q01DX005 (ip), vehicle: saline) was 100 % of control and 113 % of control.

For O=C1NC(O)c2cc(Cl)ccc2O1 (stereo not drawn), the T/C [4] was 96 % of control, the T/C [5] was 97 % of control and the T/C [6] was 96 % of control.

O=C(O)C1Cc2c([nH]c3ccccc23)C(CCCCO)N1 (stereo not drawn) was tested, and the T/C [7] was 101 % of control and the T/C [8] was 99 % of control.

NC(N)=O.NC(N)=O.NC(N)=O.NC(N)=O.NC(N)=O.NC(N)=O.[O-][Cl+3]([O-])([O-])O.[V] was tested, and the T/C [19] was 94 % of control, the T/C [20] was 97 % of control and the T/C [21] was 109 % of control.

O=S(=O)(c1ccccc1)N1CN2CCN(C2)C1 was tested, and the T/C [17] was 123 % of control and the T/C (dose: 200.0 mg/kg/injection, schedule: Q01DX009 (ip), vehicle: saline with Tween-80) was 150 % of control.

For C/C=C/N=NNc1ccccc1, the T/C (dose: 100.0 mg/kg/injection, schedule: Q04DX003 (ip), vehicle: saline + Tween-80 + alcohol) was 111 % of control, the T/C (dose: 200.0 mg/kg/injection, schedule: Q04DX003 (ip), vehicle: saline + Tween-80 + alcohol) was 112 % of control and the T/C (dose: 400.0 mg/kg/injection, schedule: Q04DX003 (ip), vehicle: saline + Tween-80 + alcohol) was 106 % of control.

In the case of CC1(C)OC(=O)N=C1c1ccc(Cl)cc1, the T/C [14] was 107 % of control and the T/C [15] was 101 % of control.

In the case of Clc1ccc(-c2cc(-c3cc(-c4ccc(Cl)cc4Cl)n[nH]3)[nH]n2)c(Cl)c1, the T/C (dose: 60.0 mg/kg/injection, schedule: Q01DX005 (ip), vehicle: Klucel + Tween-80) was 100 % of control, the T/C (dose: 120.0 mg/kg/injection, schedule: Q01DX005 (ip), vehicle: Klucel + Tween-80) was 98 % of control and the T/C (dose: 240.0 mg/kg/injection, schedule: Q01DX005 (ip), vehicle: Klucel + Tween-80) was 90 % of control.

O=C1C=C/C(=C\c2ccc(Cl)cc2)O1 was tested, and the T/C (dose: 100.0 mg/kg/injection, schedule: Q04DX002 (ip), vehicle: Klucel (hydroxypropylcellulose) (HPC)) was 99 % of control, the T/C (dose: 200.0 mg/kg/injection, schedule: Q04DX002 (ip), vehicle: Klucel (hydroxypropylcellulose) (HPC)) was 107 % of control and the T/C (dose: 400.0 mg/kg/injection, schedule: Q04DX002 (ip), vehicle: Klucel (hydroxypropylcellulose) (HPC)) was 96 % of control.

For O=C(O)c1cccc([N+](=O)[O-])c1C(=O)O, the T/C [19] was 103 % of control, the T/C [20] was 108 % of control and the T/C [21] was 103 % of control. The T/C (dose: 200.0 mg/kg/injection, schedule: Q04DX003 (ip), vehicle: saline with Tween-80) was 94 % of control.

In the case of COC(=O)c1nc(N)nc(C(=O)OC)c1C(=O)c1cc(Cl)ccc1Cl, the T/C [1] was 100 % of control and the T/C [2] was 100 % of control.

For S=c1nc[nH]c2c1ncn2CN1CCCCC1, the T/C [17] was 118 % of control, the T/C (dose: 66.0 mg/kg/injection, schedule: Q01DX009 (ip), vehicle: saline sonified) was 122 % of control and the T/C (dose: 150.0 mg/kg/injection, schedule: Q01DX009 (ip), vehicle: saline sonified) was 90 % of control.

For CC(C)(C)C(=O)CS(=O)(=O)CC(=O)C(C)(C)C, the T/C [16] was 112 % of control, the T/C [17] was 108 % of control and the T/C [18] was 103 % of control.

With O=C(Nc1cccc(Cl)c1Cl)SCCSC(=O)Nc1cccc(Cl)c1Cl the T/C (dose: 50.0 mg/kg/injection, schedule: Q01DX009 (ip), vehicle: gum acacia) was 92 % of control, the T/C (dose: 100.0 mg/kg/injection, schedule: Q01DX009 (ip), vehicle: gum acacia) was 100 % of control and the T/C (dose: 200.0 mg/kg/injection, schedule: Q01DX009 (ip), vehicle: gum acacia) was 96 % of control.

In the case of COc1ccc2cc3c(nc2c1N)C(=O)C(N1CC1)=C(N1CC1)C3=O, the T/C (dose: 25.0 mg/kg/injection, schedule: Q01DX005 (ip), vehicle: Klucel (hydroxypropylcellulose) (HPC)) was 98 % of control, the T/C [4] was 99 % of control and the T/C [5] was 100 % of control. For the same compound, the T/C [6] was 100 % of control.

For CC(C)C1OCC(CCl)O1 (stereo not drawn), the T/C (dose: 50.0 mg/kg/injection, schedule: Q01DX005 (ip), vehicle: saline with Tween-80) was 104 % of control, the T/C (dose: 100.0 mg/kg/injection, schedule: Q01DX005 (ip), vehicle: saline with Tween-80) was 100 % of control and the T/C (dose: 200.0 mg/kg/injection, schedule: Q01DX005 (ip), vehicle: saline with Tween-80) was 104 % of control.

In the case of O=[N+]([O-])OI(c1ccccc1)c1ccccc1, the T/C (dose: 1.56 mg/kg/injection, schedule: Q01DX009 (ip), vehicle: saline) was 100 % of control and 101 % of control (2×) and the T/C (dose: 3.12 mg/kg/injection, schedule: Q01DX009 (ip), vehicle: saline) was 101 % of control and 104 % of control.

O=C1CSC(=S)N1c1ccc(Cl)cc1 was tested, and the T/C [9] was 96 % of control, the T/C [10] was 96 % of control and the T/C (dose: 100.0 mg/kg/injection, schedule: Q01DX009 (ip), vehicle: Klucel (hydroxypropylcellulose) (HPC)) was 113 % of control.

NC(=S)N/N=C1/C(=O)N(c2ccccc2)C(=O)C1C(=O)Nc1ccccc1 (stereo not drawn) was tested, and the T/C [11] was 100 % of control, the T/C [12] was 106 % of control and the T/C [13] was 98 % of control.
